# Molecular target: T1, USP25 (USP25-His6, Boston Biochem E-546) (Homo sapiens, UniProt Q9UHP3)
# T1 construct: His6; purchased Boston Biochem E-546
# T1 sequence (Q9UHP3 1-1055): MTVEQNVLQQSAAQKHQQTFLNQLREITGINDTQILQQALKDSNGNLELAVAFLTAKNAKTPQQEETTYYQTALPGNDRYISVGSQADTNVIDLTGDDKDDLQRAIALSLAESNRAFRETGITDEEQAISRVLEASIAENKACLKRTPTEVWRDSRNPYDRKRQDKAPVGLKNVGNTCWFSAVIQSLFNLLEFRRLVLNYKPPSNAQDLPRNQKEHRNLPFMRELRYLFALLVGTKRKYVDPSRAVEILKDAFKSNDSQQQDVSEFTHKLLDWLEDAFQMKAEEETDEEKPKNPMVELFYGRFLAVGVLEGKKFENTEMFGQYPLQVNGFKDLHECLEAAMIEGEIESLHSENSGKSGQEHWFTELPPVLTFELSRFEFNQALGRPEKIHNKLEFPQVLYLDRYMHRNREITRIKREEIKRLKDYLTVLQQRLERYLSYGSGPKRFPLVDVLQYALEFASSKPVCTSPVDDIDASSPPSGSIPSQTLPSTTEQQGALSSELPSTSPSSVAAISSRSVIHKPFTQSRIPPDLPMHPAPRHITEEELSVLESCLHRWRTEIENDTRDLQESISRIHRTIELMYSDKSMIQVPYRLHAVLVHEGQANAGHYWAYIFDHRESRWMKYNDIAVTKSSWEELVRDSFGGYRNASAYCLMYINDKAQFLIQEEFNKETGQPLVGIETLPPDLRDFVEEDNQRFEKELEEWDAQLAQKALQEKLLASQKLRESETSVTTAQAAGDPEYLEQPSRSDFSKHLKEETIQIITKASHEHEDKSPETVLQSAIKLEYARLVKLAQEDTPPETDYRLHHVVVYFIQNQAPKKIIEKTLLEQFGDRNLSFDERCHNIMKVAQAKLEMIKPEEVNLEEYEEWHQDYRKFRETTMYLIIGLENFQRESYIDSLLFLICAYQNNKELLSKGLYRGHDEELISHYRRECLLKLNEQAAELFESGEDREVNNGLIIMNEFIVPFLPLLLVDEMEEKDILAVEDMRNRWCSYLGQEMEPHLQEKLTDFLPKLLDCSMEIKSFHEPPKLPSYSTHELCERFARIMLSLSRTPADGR
# Test: Ubiquitin-Rhodamine 110 Assay for USP25 Activity, Example A-2
# Assay type: biochemical
# Settings: Ubiquitin-Rhodamine 110 assay, Example A-2; read-out: USP25 A-2 IC50 range
# Outline: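 Cleavage of ubiquitin-rhodamine 110 (25 nM, well below Km) by His-tagged USP25 at 75 pM is measured fluorimetrically after 45 min at room temperature and acid quench. Inhibitors are preincubated with enzyme for 30 minutes. IC50 values come from four-parameter logistic curve fitting.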
row,Compound,IC50 [nM]
1,"CO[C@@]1(C)CN(c2ccc3c(n2)CC[C@H](NC(=O)c2sc4nc(C)cnc4c2N)C3)C[C@@H]1N [Example 279, 7-amino-N-[(6S)-2-[(3S,4S)-4-amino-3-methoxy-3-methylpyrrolidin-1-yl]-5,6,7,8-tetrahydroquinolin-6-yl]-3-methylthieno[2,3-b]pyrazine-6-carboxamide]",> 2000
2,"CO[C@]1(C)CN(c2ccc3c(n2)CC[C@H](NC(=O)c2sc4nc(C)cnc4c2N)C3)C[C@H]1N [Example 280, 7-amino-N-[(6S)-2-[(3R,4R)-4-amino-3-methoxy-3-methylpyrrolidin-1-yl]-5,6,7,8-tetrahydroquinolin-6-yl]-3-methylthieno[2,3-b]pyrazine-6-carboxamide]",> 2000
3,"CO[C@@]1(C)CN(c2ccc3c(c2)OC[C@H](NC(=O)c2sc4nc(C)ccc4c2N)C3)C[C@@H]1N [Example 281, 3-amino-N-[(3R)-7-[(3S,4S)-4-amino-3-methoxy-3-methylpyrrolidin-1-yl]-3,4-dihydro-2H-1-benzopyran-3-yl]-6-methylthieno[2,3-b]pyridine-2-carboxamide]",200 to 2000
4,"CO[C@]1(C)CN(c2ccc3c(c2)OC[C@H](NC(=O)c2sc4nc(C)ccc4c2N)C3)C[C@H]1N [Example 282, 3-amino-N-[(3R)-7-[(3R,4R)-4-amino-3-methoxy-3-methylpyrrolidin-1-yl]-3,4-dihydro-2H-1-benzopyran-3-yl]-6-methylthieno[2,3-b]pyridine-2-carboxamide]",200 to 2000
5,"CO[C@@H]1[C@@H](N)CN(c2ccc3c(c2)OC[C@H](NC(=O)c2sc4nc(C)ccc4c2N)C3)[C@H]1C [Example 283, 3-amino-N-[(3R)-7-[(2S,3R,4S)-4-amino-3-methoxy-2-methylpyrrolidin-1-yl]-3,4-dihydro-2H-1-benzopyran-3-yl]-6-methylthieno[2,3-b]pyridine-2-carboxamide]",50 to 200
6,"CO[C@H]1[C@H](N)CN(c2ccc3c(c2)OC[C@H](NC(=O)c2sc4nc(C)ccc4c2N)C3)[C@@H]1C [Example 284, 3-amino-N-[(3R)-7-[(2R,3S,4R)-4-amino-3-methoxy-2-methylpyrrolidin-1-yl]-3,4-dihydro-2H-1-benzopyran-3-yl]-6-methylthieno[2,3-b]pyridine-2-carboxamide]",50 to 200
7,"Cc1ccc2c(N)c(C(=O)N[C@H]3CCc4nc(N5C[C@H](OC6CCC6)[C@@H](N)C5)ccc4C3)sc2n1 [Example 285, 3-amino-N-[(6S)-2-[(3S,4S)-3-amino-4-cyclobutoxypyrrolidin-1-yl]-5,6,7,8-tetrahydroquinolin-6-yl]-6-methylthieno[2,3-b]pyridine-2-carboxamide]",> 2000
8,"CO[C@H]1CN(c2ccc3c(n2)OC[C@H](NC(=O)c2sc4nc(C)cc(C)c4c2N)C3)C[C@@H]1N [Example 286, 3-amino-N-[(3R)-7-[(3S,4S)-3-amino-4-methoxypyrrolidin-1-yl]-2H,3H,4H-pyrano[2,3-b]pyridin-3-yl]-4,6-dimethylthieno[2,3-b]pyridine-2-carboxamide]",> 2000
9,"Cc1ccc2c(N)c(C(=O)N[C@H]3COc4nc(N5C[C@H](OC(C)C)[C@@H](N)C5)ccc4C3)sc2n1 [Example 287, 3-amino-N-[(3R)-7-[(3S,4S)-3-amino-4-(propan-2-yloxy)pyrrolidin-1-yl]-2H,3H,4H-pyrano[2,3-b]pyridin-3-yl]-6-methylthieno[2,3-b]pyridine-2-carboxamide]",> 2000
10,"Cc1ccc2c(N)c(C(=O)N[C@H]3COc4cc(N5CC[C@@H](N)C5)ccc4C3)sc2n1 [Example 288, 3-amino-N-[(3R)-7-[(3R)-3-aminopyrrolidin-1-yl]-3,4-dihydro-2H-1-benzopyran-3-yl]-6-methylthieno[2,3-b]pyridine-2-carboxamide]",200 to 2000
11,"CO[C@]12CNC[C@H]1CN(c1ccc3c(c1)OC[C@H](NC(=O)c1sc4nc(C)ccc4c1N)C3)C2 [Example 291, N-[(3R)-7-[(3aS,6aS)-3a-methoxy-octahydropyrrolo[3,4-c]pyrrol-2-yl]-3,4-dihydro-2H-1-benzopyran-3-yl]-3-amino-6-methylthieno[2,3-b]pyridine-2-carboxamide]",200 to 2000
12,"CO[C@@]12CNC[C@@H]1CN(c1ccc3c(c1)OC[C@H](NC(=O)c1sc4nc(C)ccc4c1N)C3)C2 [Example 292, N-[(3R)-7-[(3aR,6aR)-3a-methoxy-octahydropyrrolo[3,4-c]pyrrol-2-yl]-3,4-dihydro-2H-1-benzopyran-3-yl]-3-amino-6-methylthieno[2,3-b]pyridine-2-carboxamide]",200 to 2000
13,"CO[C@H]1CN(c2ccc3c(n2)CC[C@H](NC(=O)c2sc4nc(C)cc(C)c4c2N)C3)C[C@@H]1NC(C)=O [Example 293, 3-amino-N-[(6S)-2-[(3S,4S)-3-acetamido-4-methoxypyrrolidin-1-yl]-5,6,7,8-tetrahydroquinolin-6-yl]-4,6-dimethylthieno[2,3-b]pyridine-2-carboxamide]",> 2000
14,"Cc1ccc2c(N)c(C(=O)N[C@H]3COc4cc(N5C[C@H](C(F)F)[C@@H](N)C5)ccc4C3)sc2n1 [Example 294, 3-amino-N-[(3R)-7-[(3R,4S)-3-amino-4-(difluoromethyl)pyrrolidin-1-yl]-3,4-dihydro-2H-1-benzopyran-3-yl]-6-methylthieno[2,3-b]pyridine-2-carboxamide]",50 to 200
15,"Cc1ccc2c(N)c(C(=O)N[C@H]3COc4cc(N5C[C@@H](N)[C@H](C(F)F)C5)ccc4C3)sc2n1 [Example 295, 3-amino-N-[(3R)-7-[(3S,4R)-3-amino-4-(difluoromethyl)pyrrolidin-1-yl]-3,4-dihydro-2H-1-benzopyran-3-yl]-6-methylthieno[2,3-b]pyridine-2-carboxamide]",50 to 200
16,"COC[C@@H]1CN(c2ccc3c(n2)CC[C@H](NC(=O)c2sc4nc(C)cc(C)c4c2N)C3)C[C@@H]1N [Example 296, 3-amino-N-[(6S)-2-[(3R,4R)-3-amino-4-(methoxymethyl)pyrrolidin-1-yl]-5,6,7,8-tetrahydroquinolin-6-yl]-4,6-dimethylthieno[2,3-b]pyridine-2-carboxamide-]",> 2000
17,"COC[C@H]1CN(c2ccc3c(n2)CC[C@H](NC(=O)c2sc4nc(C)cc(C)c4c2N)C3)C[C@H]1N [Example 297, 3-amino-N-[(6S)-2-[(3S,4S)-3-amino-4-(methoxymethyl)pyrrolidin-1-yl]-5,6,7,8-tetrahydroquinolin-6-yl]-4,6-dimethylthieno[2,3-b]pyridine-2-carboxamide]",200 to 2000
18,"COC[C@@H]1CN(c2ccc3c(n2)CC[C@H](NC(=O)c2sc4nc(C)cnc4c2N)C3)C[C@@H]1N [Example 298, 7-amino-N-[(6S)-2-[(3R,4R)-3-amino-4-(methoxymethyl)pyrrolidin-1-yl]-5,6,7,8-tetrahydroquinolin-6-yl]-3-methylthieno[2,3-b]pyrazine-6-carboxamide]",> 2000
19,"COC[C@H]1CN(c2ccc3c(n2)CC[C@H](NC(=O)c2sc4nc(C)cnc4c2N)C3)C[C@H]1N [Example 299, 7-amino-N-[(6S)-2-[(3S,4S)-3-amino-4-(methoxymethyl)pyrrolidin-1-yl]-5,6,7,8-tetrahydroquinolin-6-yl]-3-methylthieno[2,3-b]pyrazine-6-carboxamide]",200 to 2000
20,"COC[C@@H]1CN(c2nc3c(cc2F)C[C@@H](NC(=O)c2sc4nc(C)ccc4c2N)CC3)C[C@@H]1N [Example 300, 3-amino-N-[(6S)-2-[(3R,4R)-3-amino-4-(methoxymethyl)pyrrolidin-1-yl]-3-fluoro-5,6,7,8-tetrahydroquinolin-6-yl]-6-methylthieno[2,3-b]pyridine-2-carboxamide]",> 2000
21,"COC[C@H]1CN(c2nc3c(cc2F)C[C@@H](NC(=O)c2sc4nc(C)ccc4c2N)CC3)C[C@H]1N [Example 301, 3-amino-N-[(6S)-2-[(3S,4S)-3-amino-4-(methoxymethyl)pyrrolidin-1-yl]-3-fluoro-5,6,7,8-tetrahydroquinolin-6-yl]-6-methylthieno[2,3-b]pyridine-2-carboxamide]",> 2000
22,"Cc1ccc2c(N)c(C(=O)N[C@H]3COc4cc(N5C[C@@H]6CCN[C@@H]6C5)ccc4C3)sc2n1 [Example 304, N-[(3R)-7-[(3aS,6aS)-octahydropyrrolo[3,4-b]pyrrol-5-yl]-3,4-dihydro-2H-1-benzopyran-3-yl]-3-amino-6-methylthieno[2,3-b]pyridine-2-carboxamide]",200 to 2000

# Reference: patent US11524966B1 (Valo Early Discovery, Inc., priority 2017, dated 2022)
